In patent US20140012041A1, “METHOD FOR PRODUCING LACTATE” (TORAY INDUSTRIES, INC., priority 2010, published 2014):

Test: Concentration of lactic acid fermentation culture medium with reverse osmosis membrane at 50° C. until calcium lactate precipitates
Settings: no calcium formate added
Experimental: While the recovered concentrate was incubated at 50° C., the concentrate was filtered by suction filtration through Qualitative Filter Paper No. 2 (manufactured by [sequence]) to remove the precipitated calcium lactate crystals.

## CC(O)C(=O)[O-].CC(O)C(=O)[O-].[Ca+2] (stereo not drawn) [calcium lactate]
D-lactic acid fermentation medium (SL strain)
  concentration of calcium lactate at which precipitation was found: 12.5 % by weight
L-lactic acid fermentation medium (LC strain)
  concentration of calcium lactate at which precipitation was found: 12.8 % by weight
L-lactic acid fermentation medium (yeast HI003 strain)
  concentration of calcium lactate at which precipitation was found: 12.0 % by weight
